Source: patent US4933104A, “Anthraquinone derivative as a dichroic dye for a liquid-crystal material, liquid-crystal material and an electrooptical device” (priority 1986, dated 1990)
Where “and” joins values, the source holds several entries; their conditions need not be identical. Identical values can stand only once.

Columns and labels:
Assay type in all cases: physicochemical
[1] = limiting solubility in liquid-crystalline mixtures at 20° C.; conditions: for solubility exceeds the solubility of the known analogue: ratio to known derivative, No. 2, 7 and 6 of Table 3 vs No. 1, 5 and 6 of Table 6; for Solubility (limiting), known derivatives: Table 6, derivatives of SU 1089084
[2] = negative dichroism S in a liquid-crystalline mixture; conditions: liquid-crystalline mixture ZK-807
Procedure: (§1) Table 1 given below lists the values of negative dichroism of the anthraquinone derivative of general formula /1/ for examples 1-30 in a liquid-crystalline mixture ZK-807; Table 2 illustrates physico-chemical characteristics, and Table 3--limiting solubility in liquid-crystalline mixtures (ZK-807, ZLI-1840, 3010, SP-586, ZK-1282) at 20° C.

[3] = λmax of the long-wave absorption band of the dye; conditions: Table 1 / Examples; several values = several maxima
Procedure: as §1

Row | Compound | Solubility (limiting) ([1]; ZK-807, 20° C.) [mass %] | Solubility (limiting) ([1]; SP-586, 20° C.) [mass %] | Solubility (limiting) ([1]; ZLI-1840, 20° C.) [mass %] | solubility exceeds the solubility of the known analogue [1] [times] | negative dichroism S [2] | λmax [3] | Solubility (limiting) ([1]; 3010, 20° C.) [mass %] | Solubility (limiting) ([1]; ZK-1282, 20° C.) [mass %] | Solubility (limiting), known derivatives ([1]; ZK-807, 20° C.) [mass %] | Solubility (limiting), known derivatives ([1]; ZLI-1840, 20° C.) [mass %]
1 | CCCCCCCCNc1cc(CCCC)c(NC(=O)c2ccc(-c3ccc(CCCCCCCC)cc3)cc2)c2c1C(=O)c1ccccc1C2=O [Compound 1] | 2.0 |  |  |  |  |  |  |  |  | 
2 | CCCCc1ccc(C(=O)Nc2cc(CCCC)c(NC(=O)c3ccc(CCCC)cc3)c3c2C(=O)c2ccccc2C3=O)cc1 [Compound 2, 1,4-Bis(4-butylbenzamido)-2-butylanthraquinone] | 4.0 | 2.9 | 3.6 | 2.5 | -0.22 | 475 nm |  |  |  | 
3 | CCCCc1ccc(C(=O)Nc2ccc(OC(=O)c3ccc(CCCC)cc3)c3c2C(=O)c2c(NC(=O)c4ccc(CCCC)cc4)cc(C)c(OC(=O)c4ccc(CCCC)cc4)c2C3=O)cc1 [Compound 3, 1,8Bis-(4-butylbenzamido)-4,5-bis-(4-butylbenzoyloxy)-3-methylanthraquinone] | 5.0 | 2.0 | 1.0 |  | -0.34 | 465 nm | 1.1 |  |  | 
4 | CCCCCC1CCC(c2ccc(C(=O)Nc3ccc(OC(=O)c4ccc(C5CCC(CCCCC)CC5)cc4)c4c3C(=O)c3c(NC(=O)c5ccc(C6CCC(CCCCC)CC6)cc5)cc(C)c(OC(=O)c5ccc(C6CCC(CCCCC)CC6)cc5)c3C4=O)cc2)CC1 (stereo not drawn) [Compound 4] | 1.0 | 1.9 | 1.5 |  | -0.36 | 468 nm | 3.0 |  |  | 
5 | CCCCCCC1CCC(C(=O)Nc2ccc(OC(=O)C3CCC(CCCCCC)CC3)c3c2C(=O)c2c(NC(=O)C4CCC(CCCCCC)CC4)cc(C)c(OC(=O)C4CCC(CCCCCC)CC4)c2C3=O)CC1 (stereo not drawn) [Compound 5] | 3.0 |  |  |  | -0.37 | 461 nm | 1.0 |  |  | 
6 | CCCCc1ccc(C(=O)Nc2cc(CCCC)c(OC(=O)c3ccc(CCCC)cc3)c3c2C(=O)c2c(NC(=O)c4ccc(CCCC)cc4)cc(CCCC)c(OC(=O)c4ccc(CCCC)cc4)c2C3=O)cc1 [Compound 6, 1,8-Bis-(4-butylbenzamido)-4,5-bis-(4.butylbenzoyloxy)-3,6-dibutylanthraquinone] | 9.0 | 4.0 |  | 18 | -0.33 | 468 nm | 4.6 | 4.0 |  | 
7 | CCCCCCc1ccc(C(=O)Nc2cc(CCCC)c(OC(=O)c3ccc(CCCCCC)cc3)c3c2C(=O)c2c(NC(=O)c4ccc(CCCCCC)cc4)cc(CCCC)c(OC(=O)c4ccc(CCCCCC)cc4)c2C3=O)cc1 [Compound 7] | 5.0 |  |  | 10 | -0.26 | 434 nm and 455 nm |  |  |  | 
8 | CCCCCC1CCC(c2ccc(C(=O)Nc3cc(CCCC)c(OC(=O)c4ccc(C5CCC(CCCCC)CC5)cc4)c4c3C(=O)c3c(NC(=O)c5ccc(C6CCC(CCCCC)CC6)cc5)cc(CCCC)c(OC(=O)c5ccc(C6CCC(CCCCC)CC6)cc5)c3C4=O)cc2)CC1 (stereo not drawn) [Compound 8] | 11.0 |  | 5.7 |  | -0.38 | 466 nm | 2.6 | 1.8 |  | 
9 | CCCCCC1CCC(c2ccc(C(=O)Nc3cc(CCCC)c(OC(=O)C4CCC(CCCC)CC4)c4c3C(=O)c3c(NC(=O)c5ccc(C6CCC(CCCCC)CC6)cc5)cc(CCCC)c(OC(=O)C5CCC(CCCC)CC5)c3C4=O)cc2)CC1 (stereo not drawn) [Compound 9] | 9.0 |  | 7.7 |  | -0.38 | 475 nm | 9.0 |  |  | 
10 | CCCCc1cc(NC(=O)C2CCC(CCCC)CC2)c2c(c1OC(=O)c1ccc(C3CCC(CCCC)CC3)cc1)C(=O)c1c(OC(=O)c3ccc(C4CCC(CCCC)CC4)cc3)c(CCCC)cc(NC(=O)C3CCC(CCCC)CC3)c1C2=O (stereo not drawn) [Compound 10] | 10.8 | 7.5 | 7.2 |  | -0.35 | 466 nm | 9.0 |  |  | 
11 | CCCCCC1CCC(c2ccc(C(=O)Nc3cc(CCCC)c(OC(=O)CCC)c4c3C(=O)c3c(NC(=O)c5ccc(C6CCC(CCCCC)CC6)cc5)cc(CCCC)c(OC(=O)CCC)c3C4=O)cc2)CC1 (stereo not drawn) [Compound 12] | 5.2 |  |  |  | -0.35 | 473 nm | 1.82 |  |  | 

Continued, values first:

Row | Solubility (limiting) ([1]; ZK-807, 20° C.) [mass %] | Solubility (limiting) ([1]; SP-586, 20° C.) [mass %] | Solubility (limiting) ([1]; ZLI-1840, 20° C.) [mass %] | solubility exceeds the solubility of the known analogue [1] [times] | negative dichroism S [2] | λmax [3] | Solubility (limiting) ([1]; 3010, 20° C.) [mass %] | Solubility (limiting) ([1]; ZK-1282, 20° C.) [mass %] | Solubility (limiting), known derivatives ([1]; ZK-807, 20° C.) [mass %] | Solubility (limiting), known derivatives ([1]; ZLI-1840, 20° C.) [mass %] | Compound
12 | 4.9 |  | 2.1 |  | -0.37 | 470 nm | 1.75 |  |  |  | CCCCc1cc(NC(=O)c2ccc(C3CCC(CCCC)CC3)cc2)c2c(c1OC(=O)CCC)C(=O)c1c(OC(=O)CCC)c(CCCC)cc(NC(=O)c3ccc(C4CCC(CCCC)CC4)cc3)c1C2=O (stereo not drawn) [Compound 13]
13 | 9.5 | 3.78 | 3.8 |  | -0.32 | 458 nm and 470 nm | 4.46 | 4.0 |  |  | CCCCCc1cc(NC(=O)c2ccc(CCCC)cc2)c2c(c1OC(=O)c1ccc(CCCC)cc1)C(=O)c1c(OC(=O)c3ccc(CCCC)cc3)c(CCCCC)cc(NC(=O)c3ccc(CCCC)cc3)c1C2=O [Compound 14]
14 | 2.7 |  |  |  | -0.31 | 534 nm | 0.7 |  |  |  | CCCCc1ccc(C(=O)Nc2cc(CCCC)c(O)c3c2C(=O)c2c(NC(=O)c4ccc(CCCC)cc4)cc(CCCC)c(OC(=O)c4ccc(CCCC)cc4)c2C3=O)cc1 [Compound 18, 1,8-bis-(4-butylbenzamido)-4-(4-butylbenzoyloxy)-3,6-dibutyl-5-oxyanthraquinone]
15 |  | 2.9 | 2.5 |  | -0.38 | 540 nm | 4.8 |  |  |  | CCCCCC1CCC(c2ccc(C(=O)Nc3cc(CCCC)c(O)c4c3C(=O)c3c(NC(=O)c5ccc(C6CCC(CCCCC)CC6)cc5)cc(CCCC)c(OC(=O)c5ccc(C6CCC(CCCCC)CC6)cc5)c3C4=O)cc2)CC1 (stereo not drawn) [Compound 19]
16 | 1.2 |  | 0.7 |  | -0.33 | 534 nm | 0.75 |  |  |  | CCCCCCC1CCC(c2ccc(C(=O)Nc3cc(CCCC)c(O)c4c3C(=O)c3c(NC(=O)c5ccc(C6CCC(CCCCCC)CC6)nc5Cl)cc(CCCC)c(OC(=O)c5ccc(C6CCC(CCCCCC)CC6)nc5Cl)c3C4=O)c(Cl)n2)CC1 (stereo not drawn) [Compound 20]
17 |  |  | 3.0 |  | -0.37 | 542 nm | 3.3 | 2.7 |  |  | CCCCCC1CCC(c2ccc(C(=O)Nc3cc(CCCC)c(O)c4c3C(=O)c3c(NC(=O)c5ccc(C6CCC(CCCCC)CC6)cc5)cc(CCCC)c(OC(=O)C5CCC(CCCC)CC5)c3C4=O)cc2)CC1 (stereo not drawn) [Compound 21]
18 | 1.1 | 1.2 | 1.4 |  | -0.38 | 545 nm | 2.0 | 1.5 |  |  | CCCCCC1CCC(c2ccc(C(=O)Nc3cc(CCCC)c(O)c4c3C(=O)c3c(NC(=O)c5ccc(C6CCC(CCCCC)CC6)cc5)cc(CCCC)c(OC(=O)CCC)c3C4=O)cc2)CC1 (stereo not drawn) [Compound 22]
19 | 1.7 |  | 2.6 |  | -0.36 | 542 nm | 2.0 |  |  |  | CCCCc1cc(NC(=O)c2ccc(C3CCC(CCCC)CC3)cc2)c2c(c1O)C(=O)c1c(OC(=O)CCC)c(CCCC)cc(NC(=O)c3ccc(C4CCC(CCCC)CC4)cc3)c1C2=O (stereo not drawn) [Compound 23]
20 | 6.0 |  | 5.5 |  | -0.33 | 563 nm and 617 nm | 6.0 |  |  |  | CCCCCC1CCC(c2ccc(C(=O)Nc3cc(CCCC)c(O)c4c3C(=O)c3c(OC(=O)c5ccc(C6CCC(CCCCC)CC6)cc5)c(CCCC)cc(NC(=O)c5ccc(C6CCC(CCCCC)CC6)cc5)c3C4=O)cc2)CC1 (stereo not drawn) [Compound 24]
21 | 3.0 |  | 1.0 |  | -0.30 | 540 nm | 0.9 |  |  |  | CCCCCc1cc(NC(=O)c2ccc(CCCC)cc2)c2c(c1O)C(=O)c1c(OC(=O)c3ccc(CCCC)cc3)c(CCCCC)cc(NC(=O)c3ccc(CCCC)cc3)c1C2=O [Compound 25]
22 |  |  |  |  | -0.34 | 566 nm and 608 nm |  |  |  |  | CCCCc1cc(NC(=O)c2ccc(C3CCC(CCCC)CC3)cc2)c2c(c1O)C(=O)c1c(O)c(CCCC)cc(NC(=O)c3ccc(C4CCC(CCCC)CC4)cc3)c1C2=O (stereo not drawn) [Compound 30]
23 |  |  |  |  |  |  |  |  | 0.8 | 0.4 | CCCCCCCCc1ccc(-c2ccc(C(=O)Nc3ccc(NCCCC)c4c3C(=O)c3ccccc3C4=O)cc2)cc1 [No. 1, Table 6, reference compound]
24 |  |  |  |  |  |  |  |  | 0.9 | 0.5 | CCCCCc1ccc(-c2ccc(C(=O)Nc3ccc(NCCCC)c4c3C(=O)c3ccccc3C4=O)cc2)cc1 [No. 2, Table 6, reference compound]
